Each structure is given as a SMILES string. Counter-ions that a name gives are not always drawn. Like-named read-outs stand apart in the source and are kept apart here.

One assay has as its system NB-4. As to the kind of experiment: Cytotoxicity assay (CellTiterGlo, 72 hours treatment), NB-4. Type of assay: cell-based, Human. The note with it: NB-4 acute myeloid leukemia cells, ATP determination, read-out: Cell line IC50 NB-4. On the procedure:
(§1) Cell Lines and Cell Cultures
(§2) All cell lines were seeded at a density ranging from 2,400 to 8,000 cells/well in 384-well cell culture microplates and incubated at […] in a humidified 5% […] atmosphere 24 hours before treatment. Compound solutions were directly administered to the cells using the D300e digital dispenser (Tecan) to obtain scalar final concentrations ranging from 5 nM to 10 μM (duplicate wells for each point), with 80 uL final volume per well. The final DMSO concentration in test wells was adjusted to 0.1% (v/v); control wells were mock-treated and contained the same final concentration of DMSO.
(§3) Cell viability was determined after 72 hours treatment by ATP determination in each test well with a luciferase-based detection system (CellTiterGlo, Promega, Madison, WI, USA), following manufacturer's instructions. The intensity of emitted light was measured using an EnVision reader (PerkinElmer, Waltham, MA USA) and expressed as RLU. One to three independent experiments were performed for each cell line, as indicated.
(§4) Analysis of Antiproliferative Data
(§5) Cell growth inhibitory activity was evaluated comparing treated versus control data using the Assay Explorer software suite (Symix Technologies Inc.). IC50s values were calculated by sigmoidal fitting interpolation using the following quadriparametric Hill equation: […]
(§6) The Top, Bottom and Hill slope parameters were left free to assume any value, but only curves whose Hill slope had values between 0.5 and 4 were arbitrarily considered acceptable and used to calculate the average IC50s. Curves too steep (HillSlope≥4) or too slight (HillSlope≤0.5) were not included (Table C).

In another assay the test system is MOLM-13. The experiment in a line: Cytotoxicity assay (CellTiterGlo, 72 hours treatment), MOLM-13. Type of assay: cell-based, Human. The note with it: MOLM-13 acute myeloid leukemia cells, ATP determination, read-out: Cell line IC50 MOLM-13. On the procedure: as §1, §2, §3, §4, §5, §6
For another assay, the target named is T1, CDK11A (Homo sapiens, UniProt Q9UQ88).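 Further: compound preincubated 30 min with CDK11A-p58, then probe added and polarization (mP) read 15 min later, 0% displacement is probe plus enzyme, 100% is probe alone.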
T1 sequence (Q9UQ88 346-783): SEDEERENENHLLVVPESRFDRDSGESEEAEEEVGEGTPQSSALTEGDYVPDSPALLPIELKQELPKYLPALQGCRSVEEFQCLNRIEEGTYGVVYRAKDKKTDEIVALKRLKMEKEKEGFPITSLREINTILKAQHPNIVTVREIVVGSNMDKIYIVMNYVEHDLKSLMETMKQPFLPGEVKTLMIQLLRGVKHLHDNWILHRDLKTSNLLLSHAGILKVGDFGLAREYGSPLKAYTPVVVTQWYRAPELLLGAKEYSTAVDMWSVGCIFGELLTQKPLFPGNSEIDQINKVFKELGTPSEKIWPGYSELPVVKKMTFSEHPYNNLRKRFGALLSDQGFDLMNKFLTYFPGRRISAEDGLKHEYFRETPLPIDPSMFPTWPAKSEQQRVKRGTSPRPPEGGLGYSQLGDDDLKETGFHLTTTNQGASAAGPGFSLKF
The note with it: displacement of SNS-032-Atto590 probe (0.002 μM) from CDK11A-p58 (0.032 uM), fluorescence polarization.

Another assay concerns EoL-1-cell. As to the kind of experiment: Cytotoxicity assay (CellTiterGlo, 72 hours treatment), EoL-1. In kind it is cell-based, Human. The note with it: EoL-1 acute myeloid leukemia cells, ATP determination, read-out: Cell line IC50 EoL-1-cell. On the procedure:
as §1, §2, §3, §4, §5, §6
On the technique in general: ATP-based viability assays read luminescence as a measure of living cells.

Experimental for CDK11A: Biochemical Kinase Inhibition Assay on CDK11 in Displacement Assay Format
Displacement Assay Format
Fluorescence Polarization (FP) experiments were carried out at room temperature using no-binding black 384-well microplates (Corning, NY), in 50 mM Tris HCl, pH 8, 10 mM MgCl2, 1 mM DTT, 1 mM CHAPS in a final volume of 60 μl. The plate reader was the Pherastar microplate reader (BMG). Polarization values were read using excitation and emission wavelengths of 590 and 675 nm, respectively. All FP values are expressed as mP units.
Compounds were 4-folds serially diluted in 100% DMSO and added directly to the CDK11A-p58 solution using the pin tool (V & P Scientific): 0.2 ul of the different compound concentrations in 20 ul of enzyme solution. After an incubation of 30 minutes at r.t., 40 ul of probe solution were added. […] The Pherastar reading is performed after 15 minutes of all components incubation. For each assay, high controls (equivalent to 0% displacement) contain probe, CDK11A-p58, and 0.33% DMSO, whereas low controls (equivalent to 100% displacement) contain only probe and 0.33% DMSO. Controls are used for the Z′ and signal to background evaluation.
The data per each molecule are analyzed by Prism SW or an internally customized version of the SW package “Assay Explorer” which provides sigmoidal fittings of the ten-dilution curves for DC50 determination using a 4 parameters logistic equation:
where x is the logarithm of the inhibitor concentration, y is the response; y starts at bottom and goes to top with a sigmoid shape.

By IC50 is commonly meant the midpoint of a concentration-inhibition curve. In the case of `CCNC1CC(C(=O)Nc2n[nH]c3ccc(-c4cc(C#N)ccc4Cl)cc23)C1` (stereo not shown) [compound 152, N-[5-(2-Chloro-5-cyanophenyl)-1H-indazol-3-yl]-3-(ethylamino)cyclobutanecarboxamide hydrochloride], the concentration for half-maximal inhibition (IC50) in the assay with NB-4 (Homo sapiens, NB-4, 72 h) amounted to 226 nM; in the assay on MOLM-13 (Homo sapiens, MOLM-13, 72 h), 203 nM; in the assay on EoL-1-cell (Homo sapiens, EOL1, 72 h) it was 191 nM. The DC50 on CDK11A came to 31 nM.
For `N#Cc1ccc(Cl)c(-c2ccc3[nH]nc(NC(=O)[C@@H]4CCCNC4)c3c2)c1` [compound 174, (3R)-N-[5-(2-Chloro-5-cyanophenyl)-1H-indazol-3-yl]piperidine-3-carboxamide hydrochloride] the same measures were 171 nM, 190 nM, 165 nM and 23 nM.
For `Cc1ccc(F)c(-c2ccc3[nH]nc(NC(=O)[C@@H]4CCCNC4)c3c2)c1` [cpd 32, (3R)-N-[5-(2-Fluoro-5-methylphenyl)-1H-indazol-3-yl]piperidine-3-carboxamide hydrochloride], the IC50 in the assay with NB-4 (Homo sapiens, NB-4, 72 h) was determined as 2480 nM; in the assay with MOLM-13 (Homo sapiens, MOLM-13, 72 h), 1510 nM; with EoL-1-cell (Homo sapiens, EOL1, 72 h) it was 2040 nM. On CDK11A, this compound displayed a DC50 of 23 nM.
For `O=C(Nc1n[nH]c2ccc(-c3c(Cl)cccc3Cl)cc12)[C@@H]1CCCNC1` [compound 169, (3R)-N-[5-(2,6-Dichlorophenyl)-1H-indazol-3-yl]piperidine-3-carboxamide hydrochloride] the same measures were 317 nM, 219 nM, 281 nM and 21 nM.
On the same counts, the results for `CNC1CC(C(=O)Nc2n[nH]c3ccc(-c4c(Cl)cccc4Cl)cc23)C1` (stereo not shown) [compound 145, N-[5-(2,6-Dichlorophenyl)-1H-indazol-3-yl]-3-(methylamino)cyclobutanecarboxamide hydrochloride] are 520 nM, 483 nM, 663 nM and 44 nM.
Regarding `N#Cc1ccc(Cl)c(-c2ccc3[nH]nc(NC(=O)C4CCC5(CCCCC5)NC4)c3c2)c1` (stereo not shown) [compound 186, N-[5-(2-Chloro-5-cyanophenyl)-1H-indazol-3-yl]-1-azaspiro[5.5]undecane-3-carboxamide hydrochloride], the half-maximal inhibitory concentration (IC50) with NB-4 (Homo sapiens, NB-4, 72 h) came out at 365 nM; with MOLM-13 (Homo sapiens, MOLM-13, 72 h) it was 303 nM; with EoL-1-cell (Homo sapiens, EOL1, 72 h), 315 nM. The DC50 at CDK11A stood at 65 nM.
For `N#Cc1ccc(Cl)c(-c2ccc3[nH]nc(NC(=O)[C@@H]4CCC5(CCCCC5)NC4)c3c2)c1` (single isomer, unassigned) [compound 206, (3+)-N-[5-(2-Chloro-5-cyanophenyl)-1H-indazol-3-yl]-1-azaspiro[5.5]undecane-3-carboxamide] the same measures were 205 nM, 194 nM, 180 nM and 23 nM.
As to `CC1(C)CCC(C(=O)Nc2n[nH]c3ccc(-c4cc(C#N)ccc4Cl)cc23)CN1` (single isomer, unassigned; (+)) [compound 202, (+)-N-[5-(2-Chloro-5-cyanophenyl)-1H-indazol-3-yl]-6,6-dimethylpiperidine-3-carboxamide], the IC50 is 56 nM with NB-4, 77 nM in the assay on MOLM-13 and 73 nM with EoL-1-cell. The compound further showed a DC50 on CDK11A of 15 nM.
As for `CC1(C)CCC(C(=O)Nc2n[nH]c3ccc(-c4cc(C#N)ccc4Cl)cc23)CN1` (stereo not shown) [compound 184, N-[5-(2-Chloro-5-cyanophenyl)-1H-indazol-3-yl]-6,6-dimethylpiperidine-3-carboxamide hydrochloride], the IC50 was determined as 151 nM in the assay on NB-4 (Homo sapiens, NB-4, 72 h); 164 nM with MOLM-13 (Homo sapiens, MOLM-13, 72 h); 160 nM in the assay with EoL-1-cell (Homo sapiens, EOL1, 72 h). This compound gave a DC50 on CDK11A of 29 nM.
Take `N#Cc1ccc(Cl)c(-c2ccc3[nH]nc(NC(=O)[C@@H]4CCNC4)c3c2)c1` [compound 176, (3R)-N-[5-(2-Chloro-5-cyanophenyl)-1H-indazol-3-yl]pyrrolidine-3-carboxamide hydrochloride]: the IC50 in the assay with NB-4 (Homo sapiens, NB-4, 72 h) came to 384 nM; in the assay with MOLM-13 (Homo sapiens, MOLM-13, 72 h) it was 505 nM; with EoL-1-cell (Homo sapiens, EOL1, 72 h), 425 nM. Further, the DC50 at CDK11A stood at 18 nM.
For `N#Cc1ccc(Cl)c(-c2ccc3[nH]nc(NC(=O)[C@@H]4CCC5(CCCC5)NC4)c3c2)c1` (single isomer, unassigned) [compound 204, (8+)-N-[5-(2-Chloro-5-cyanophenyl)-1H-indazol-3-yl]-6-azaspiro[4.5]decane-8-carboxamide hydrochloride] the same measures were 211 nM, 194 nM, 237 nM and 30 nM.
On the same counts, the results for `N#Cc1ccc(F)c(-c2ccc3[nH]nc(NC(=O)[C@@H]4CCCNC4)c3c2)c1` [cpd 25, (3R)-N-[5-(5-Cyano-2-fluorophenyl)-1H-indazol-3-yl]piperidine-3-carboxamide hydrochloride] are 1660 nM, 2860 nM, 1720 nM and 31 nM.
For `Cc1ccc(C#N)cc1-c1ccc2[nH]nc(NC(=O)[C@@H]3CCCNC3)c2c1` [cpd 24, (3R)-N-[5-(5-Cyano-2-methylphenyl)-1H-indazol-3-yl]piperidine-3-carboxamide hydrochloride] the same measures were 595 nM, 563 nM, 423 nM and 43 nM.
As to `CC1(C)CCC(C(=O)Nc2n[nH]c3ccc(-c4cc(C#N)ccc4Cl)cc23)CN1` (single isomer, unassigned; (-)) [compound 203, (−)-N-[5-(2-Chloro-5-cyanophenyl)-1H-indazol-3-yl]-6,6-dimethylpiperidine-3-carboxamide], the IC50 came out at 1320 nM with NB-4, 1380 nM in the assay on MOLM-13 and 1250 nM in the assay with EoL-1-cell. Also, at CDK11A, the DC50 came out at 181 nM.
`O=C(Nc1n[nH]c2ccc(-c3c(F)cccc3Cl)cc12)C1CCCNC1` (stereo not shown) [compound 165, N-[5-(2-Chloro-6-fluorophenyl)-1H-indazol-3-yl]piperidine-3-carboxamide hydrochloride]: the IC50 was 629 nM with NB-4 (Homo sapiens, NB-4, 72 h); 463 nM with MOLM-13 (Homo sapiens, MOLM-13, 72 h); 484 nM with EoL-1-cell (Homo sapiens, EOL1, 72 h). At CDK11A, this compound returned a DC50 of 36 nM.
For the compound `CC(=O)c1ccc(Cl)c(-c2ccc3[nH]nc(NC(=O)[C@@H]4CCCNC4)c3c2)c1` [cpd 33, (3R)-N-[5-(5-Acetyl-2-chlorophenyl)-1H-indazol-3-yl]piperidine-3-carboxamide hydrochloride], the IC50 turned out to be 1560 nM in the assay on NB-4 (Homo sapiens, NB-4, 72 h); 1350 nM in the assay on MOLM-13 (Homo sapiens, MOLM-13, 72 h); 1380 nM with EoL-1-cell (Homo sapiens, EOL1, 72 h). The compound also returned a DC50 on CDK11A of 19 nM.
`N#Cc1ccc(Cl)c(-c2ccc3[nH]nc(NC(=O)C4CCC5(CCCC5)NC4)c3c2)c1` (stereo not shown) [compound 185, N-[5-(2-Chloro-5-cyanophenyl)-1H-indazol-3-yl]-6-azaspiro[4.5]decane-8-carboxamide hydrochloride]: the IC50 with NB-4 (Homo sapiens, NB-4, 72 h) came to 204 nM; with MOLM-13 (Homo sapiens, MOLM-13, 72 h), 261 nM; with EoL-1-cell (Homo sapiens, EOL1, 72 h) it was 294 nM. At CDK11A, this compound showed a DC50 of 21 nM.
On the same counts, the results for `N#Cc1ccc(Cl)c(-c2ccc3[nH]nc(NC(=O)C4CCCNC4)c3c2)c1` (stereo not shown) [compound 171, N-[5-(2-Chloro-5-cyanophenyl)-1H-indazol-3-yl]piperidine-3-carboxamide hydrochloride] are 416 nM, 520 nM, 332 nM and 28 nM.
On the same counts, the results for `C[C@@H]1CC[C@@H](C(=O)Nc2n[nH]c3ccc(-c4cc(C#N)ccc4Cl)cc23)CN1` [compound 179, (3R,6R)-N-[5-(2-Chloro-5-cyanophenyl)-1H-indazol-3-yl]-6-methylpiperidine-3-carboxamide trifluoroacetate] are 335 nM, 414 nM, 259 nM and 21 nM.
